The source made the active and inactive calls.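 How the source made its calls: active means EC50 no more than a set limit of log units above the highest dose; inactive means the rest.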
Molecular target: S. pyogenes SKKanGAS, kanamycin survival, BacTiterGlo, 6 h
Assay: SKKanGAS survival reduction under kanamycin, dose response, streptokinase promoter inhibitor project, SKKanGAS strain, luminescence, dose confirmation (AID 1902);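 further: lower survival reflects blocked streptokinase promoter driving kanamycin resistance gene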

Compound | EC50
COc1ccc(OCCCC(=O)Nc2nc(-c3ccccn3)cs2)cc1 | 0.309 µM
OCCN(CCO)c1ccc(C(c2ccccc2Cl)c2ccc(N(CCO)CCO)cc2Cl)c(Cl)c1 | 5.06 µM
COc1cc([N+](=O)[O-])cc(/C=N/NC(=O)C(C)Nc2cccc(C)c2)c1O (stereo unspecified) | 8.83 µM
COc1cc(O)c(CC=C(C)C)c(O)c1C(=O)CCc1ccc(O)cc1 | 2.76 µM
CC(C)Oc1ccc(C(=O)Nc2nnc(C3=COCCO3)o2)cc1 | 0.794 µM
CC(=O)C(=Nc1ccc(Cl)cc1Cl)NNc1cccc(Cl)c1 | 5.07 µM
O=C(Cc1ccccc1)Nn1c(O)c(/C=C2\C=Nc3ccccc32)sc1=S | 14.6 µM
CCOc1ccccc1NC(=O)c1nc(S(=O)(=O)Cc2ccccc2)ncc1Cl | 8.85 µM
O=C(Nc1nccs1)c1sc2ccccc2c1Cl | > 15 µM (inactive)
CCOc1ccc(/C=C2/Sc3ccc(C(=O)N4CCN(C(=O)c5ccco5)CC4)cc3N(C)C2=O)cc1OC | 4.19 µM
CCC(CC)C1=NN2C(=N)/C(=C\c3cc(C)n(-c4cccc(C)c4)c3C)C(=O)N=C2S1 | 2.91 µM
O=C(/C=C/c1cccc(C(F)(F)F)c1)Nc1cccc(C(F)(F)F)c1 | 3.3 µM
Cc1csc(NC(=O)COCC(=O)O)c1-c1nc2ccccc2s1 | 6.45 µM
CCOC(=O)C1=C(C)N=c2s/c(=C\c3ccc(O)c([N+](=O)[O-])c3)c(=O)n2C1c1ccccc1OC (stereo unspecified) | 6.9 µM
CN(C)[C@@H]1C(=O)C(C(N)=O)=C(O)[C@@]2(O)C(=O)C3=C(O)c4c(O)ccc(Cl)c4[C@@](C)(O)[C@H]3C[C@@H]12 | 0.065 µM
Cc1cc(C)c[n+](C2=C([O-])c3ccccc3C(=O)/C2=N\S(=O)(=O)c2cccs2)c1 | 1.85 µM
O=C(/C(=N\Nc1ccc([N+](=O)[O-])cc1)Sc1nnnn1-c1ccccc1)c1ccccc1 | 5.46 µM
Cc1nc2c(C(=O)Nc3ccc(N4CCCC(O)C4)cc3)snc2c(=O)[nH]1 (stereo unspecified) | 4.46 µM
CC12CCC(CC1)C(C)(C)O2 | > 15 µM (inactive)
CCCCCCCCCCCCCCCC(O)C(N)CO (stereo unspecified) | 2.2 µM
O=C(C[n+]1ccc2ccccc2c1)Nc1cc(C(F)(F)F)ccc1Cl | > 15 µM (inactive)
CC(C)(C)C(=O)N1N=C(c2ccc(NS(C)(=O)=O)cc2)CC1c1cccs1 (stereo unspecified) | 7.49 µM
O=C(Nc1nnc(-c2ccc3c(c2)CCCC3)o1)c1c(F)cccc1F | 0.612 µM
Cc1cc(C)n(-c2nc(NCCCO)c3c4c(sc3n2)CCCC4)n1 | 2.2 µM
Brc1cc(-c2ccccc2)nc(-c2ccccc2)n1 | 12.1 µM
OC(COc1cccc2ccccc12)CN1CCN(c2ccc(Cl)cc2)CC1 (stereo unspecified) | 15.4 µM

Compound | EC50
CCc1ccc(C2C(C#N)=C(N)C(C#N)(C#N)C3=CCC(C(C)(C)C)CC32)cc1 (stereo unspecified) | 5.18 µM
CCOc1ccc(Nc2cc(C)nc(-n3nc(C)cc3C)n2)cc1 | 14 µM
Cc1cc(C)c2nc(N3C(=O)C(O)=C(C(=O)c4ccco4)C3c3ccco3)sc2c1 (stereo unspecified) | 2.12 µM
c1ccc(N(c2ccccc2)c2nc(N3CCCC3)nc(-n3ccnc3)n2)cc1 | 6.12 µM
Cc1nn(CC(O)CN2c3ccccc3Sc3ccccc32)c(C)c1Br (stereo unspecified) | 2.15 µM
O=C(Nc1cccc(Cl)c1N1CCCC1)c1cc2ccccc2o1 | 4.81 µM
COc1ccc(NC(=O)C(OC(=O)c2cnc(C)cn2)c2ccccc2)cc1Cl (stereo unspecified) | 11.7 µM
COc1ccc(C(=O)NNC(=S)NC(=O)c2ccccc2)cc1 | 0.995 µM
CC(C)(C)c1ccc(C(=O)CC(=O)c2cc(Cl)ccc2O)cc1 | 0.349 µM
O=C(Nc1nc(-c2cc(Cl)sc2Cl)cs1)c1cccs1 | 8.68 µM
CCc1nnc(NC(=O)c2ccc(S(=O)(=O)N3CCCc4ccccc43)cc2)o1 | 1.68 µM
O=C(NC(=S)NNC(=O)c1cccs1)c1ccccc1 | 5.73 µM
CCOC(=O)c1cnc(-n2nc(C)cc2C)nc1Nc1ccc(C)cc1 | 0.101 µM
CCOC(=O)C1CCN(C2=C(NS(=O)(=O)c3ccc(Cl)cc3)C(=O)c3ccccc3C2=O)CC1 | 7.15 µM
O=C(CSC(=S)N1CCOCC1)c1cc(Br)cc(Br)c1O | > 15 µM (inactive)
CCc1ccc2c(c1)C1(NN=C(c3cccc4ccccc34)S1)C(=O)N2 (stereo unspecified) | 0.115 µM
CCCCCCN1N=C(C)C(C(=O)c2ccc(Cl)cc2)C1=O (stereo unspecified) | 1.51 µM
CCOC(=O)c1nn(-c2cccc(OC)c2)c2nc(Nc3ccccc3)cc(=O)n12 | 4.15 µM
COc1c(N2CCN(C(=S)Nc3ccc(F)cc3)C(C)C2)c(F)cc2c(=O)c(C(=O)O)cn(C3CC3)c12 (stereo unspecified) | 3.37 µM
Cn1c(Oc2ccccc2NCc2cc(Br)ccc2O)cc(=O)n(C)c1=O | 4.46 µM
COCCCn1c(=O)/c(=C\c2ccccc2OC(C)C)s/c1=C(/C#N)C(=O)Nc1ccc(C(=O)O)cc1 | 2.02 µM
C/C(=N/NC(=O)c1cc2ccccc2cc1O)C1C(=O)c2ccccc2C1=O | 1.57 µM
O=C(N/N=C/c1sc2ccccc2c1O)c1ccccc1 | 0.929 µM
COc1ccc(OC)c(/C=N/n2c(-c3n[nH]c4c3CCC4)n[nH]c2=S)c1 | > 15 µM (inactive)
N#Cc1c(Nc2cccc(F)c2)sc2c(O)cc(=O)[nH]c12 | 0.861 µM

From PubChem BioAssay AID1902 (Broad Institute, 2009)
